Laboratory results published in US9951373B2, “Oplophorus-derived luciferases, novel coelenterazine substrates, and methods of use” (Promega Corporation, priority 2010, dated 2018).
Read-outs that look alike come from different tables or passages of the source.

Legend:
[1] = molecular target: T1, red click beetle luciferase and OgLuc variant 9B8 opt (Oplophorus gracilirostris, UniProt Q9GV45, A31E/A60K/A81I/F95Y/I117V/L99Q/M102K/N193R/P142E/Q151K/Q38R/Q45L/V71I/Y165I); experiment: Multiplexing with red click beetle luciferase, modified DUAL-GLO assay; assay type: biochemical; details: 9B8 opt, STOP&GLO Reagent with 20 μM of the substrate
T1 construct: The IV-based variants were generated in a pF4Ag vector background without HT7; made in house; host or cells: E. coli (crude lysate, diluted 1000-fold)
T1 sequence (Q9GV45 other isoform, or with tags, fused parts or gaps with the stated changes): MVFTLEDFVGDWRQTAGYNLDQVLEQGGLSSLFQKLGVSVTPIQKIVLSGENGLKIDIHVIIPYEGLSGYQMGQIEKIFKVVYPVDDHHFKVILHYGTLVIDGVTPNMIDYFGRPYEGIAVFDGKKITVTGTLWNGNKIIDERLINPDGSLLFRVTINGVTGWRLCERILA
Protocol: (§1) A. Lysates of E. coli expressing the variant 9B8 opt were prepared as previously described in Example 27 and diluted 1000-fold in DMEM without phenol red+0.1% PRIONEX®. Luminescence from a sample containing 6.3 μg/mL of purified red click beetle luciferase and E. coli lysate expressing the variant 9B8 opt was detected using a modified DUAL-GLO® Luciferase Assay System (Promega Corp.). DUAL-GLO® STOP&GLO® Reagent containing 20 μM coelenterazine-h and DUAL-GLO® STOP&GLO® Reagent containing 20 μM PBI 3939 were used, according to the manufacturer's protocol, to detect the red click beetle luciferase and OgLuc variant 9B8 luciferase from a single sample. Three replicates were performed.
(§2) Luminescence was detected on a Turner MODULUS™ luminometer. […] The standard deviation (“+/−”) and coefficient of variance (“CV”) are also shown. A “no coelenterazine” control was performed to illustrate the amount of quenching of the red click beetle signal by the DUAL-GLO® STOP&GLO® Reagent of the DUAL-GLO® Luciferase Assay System in the absence of coelenterazine. The “no coelenterazine” control yielded a 349-fold quench.

[2] = system: red click beetle luciferase and OgLuc variant 9B8 opt; experiment: as above; assay type: biochemical; details: first step, red click beetle luciferase signal
Protocol: as §1, §2

HEK293 cells [3] = experiment: Live cell luminescence with PBI-3939; assay type: cell-based, human; details: cells in culture, 60 μM
Protocol: A. The use of OgLuc variants and PBI-3939 in live cells was examined HEK293 cells were plated in 96-well plates at 15,000 cells/well and grown overnight at 37° C. The following day, the cells were transiently transfected using TRANSIT®-LT1 in 3 replicates with 100 ng of hRL or 9B8 opt in pF4Ag and grown overnight at 37° C. The following day the growth media was removed and replaced with media containing 60 μM VIVIREN™ Live Cell Substrate (Promega Corp.), 60 μM ENDUREN™ Live Cell Substrate (Promega Corp.), or 60 μM PBI-3939 for both hRL and 9B8 opt transfected cells. Non-transfected cells were used as background control. The plate was incubated at 37° C. during the course of one day and periodically measured on a TECAN® GENIOS™ Pro luminometer, i.e., 11 times over the course of 24 hrs.

HEK293 cells [4] = system: HEK293 cells
[5] = Stability of coelenterazines in reporter reagent buffer (T90); details: time for luminescent signal to decay by 10% at 22° C. in reporter reagent buffer; read with IV lysate
OgLuc variant 9B8 = molecular target: T2, OgLuc variant 9B8 (Oplophorus gracilirostris, UniProt Q9GV45, A31E/A60K/A81I/F95Y/I117V/L99Q/M102K/N193R/P142E/Q151K/Q38R/Q45L/V71I/Y165I); experiment: LOPAC library inhibition screen; assay type: biochemical; details: preliminary LOPAC screen, 9B8, 20 μM substrate
T2 construct: The IV-based variants were generated in a pF4Ag vector background without HT7; made in house; host or cells: E. coli (crude lysate)
T2 sequence (Q9GV45 other isoform, or with tags, fused parts or gaps with the stated changes): as above
Protocol: To determine the susceptibility of the OgLuc variants to off-target interactions, the activity of the 9B8 and L27V variants was screened against a LOPAC (library of pharmacologically active compounds) library. A LOPAC 1280 library (Sigma) was prepared by diluting the compounds to 1 mM in DMSO. On the day of the assay, the compounds were diluted to 20 μM in 1×PBS, and 10 μL transferred to a 96-well, white plate. To each well, 10 μL of purified 9B8, L27V or firefly luciferase (Luc2) enzyme diluted 10^−4 in Glo Lysis Buffer (Promega Corp.) was added and incubated at room temperature for 2 min. […] For assaying firefly luciferase, the BRIGHT-GLO™ Assay reagent (Promega Corp.) was used according to the manufacturer's protocol. As a negative control, 8 wells of each plate contained 1×PBS+2% glycerol. As a positive control, 8 wells of each plate contained 2 mM Suramin in 2% DMSO or 2 mM luciferase inhibitor 1 in 2% DMSO (Calbiochem).

| Molecule | Stability (pH 8) (T90 in hrs) | Stability (pH 8) (T90 in hrs) [5] | further results |
| --- | --- | --- | --- |
| Cc1[nH]c(-c2ccccc2)cn2c(=O)c(Cc3ccc(O)cc3)nc1-2 [PBI-3896, 2-(4-hydroxybenzyl)-8-methyl-6-phenylimidazo[1,2-a]pyrazin-3(7H)-one] | 2.8 hrs |  |  |
| O=c1c(Cc2ccco2)nc2c(Cc3ccccc3)[nH]c(-c3ccccc3)cn1-2 [PBI-3939, 8-benzyl-2-(furan-2-ylmethyl)-6-phenylimidazo[1,2-a]pyrazin-3(7H)-one] | 4.1 hrs |  | Ogluc (average luminescence) [1]: 2,996,940; click beetle (average luminescence) [2]: 5,078,547; cell permeability (HEK293 cells [3]): can permeate cells in culture; biocompatibility in terms of cell viability (HEK293 cells [4]): comparable biocompatibility to native coelenterazine |
| coelenterazine-h [reference compound] |  | 2.1 hrs | Ogluc (average luminescence) [1]: 921,440; click beetle (average luminescence) [2]: 5,082,100 |
| Oc1ccc(Cc2nc3c(Cc4ccccc4)nc(-c4ccc(O)cc4)cn3c2O)cc1 [native coelenterazine, coelenterazine] | 1.7 hrs |  |  |
| O=c1c(Cc2cccs2)nc2c(Cc3ccccc3)[nH]c(-c3ccc(O)cc3)cn1-2 [PBI-4002] |  | 3.5 hrs |  |
| O=c1c(Cc2ccco2)nc2c(Cc3ccccc3)[nH]c(-c3ccc(O)cc3)cn1-2 [PBI-3945] |  | 3.3 hrs |  |
| Cc1ccc(C(=O)Nc2ccc(S(=O)(=O)O)c3cc(S(=O)(=O)O)cc(S(=O)(=O)O)c23)cc1NC(=O)c1cccc(NC(=O)Nc2cccc(C(=O)Nc3cc(C(=O)Nc4ccc(S(=O)(=O)O)c5cc(S(=O)(=O)O)cc(S(=O)(=O)O)c45)ccc3C)c2)c1 [Suramin] |  |  | inhibition of OgLuc (OgLuc variant 9B8): inhibitor of OgLuc |
| O=c1c(Cc2cccs2)nc2c(Cc3ccccc3)[nH]c(-c3ccccc3)cn1-2 [PBI-3889, 8-benzyl-6-phenyl-2-(thiophen-2-ylmethyl)imidazo[1,2-a]pyrazin-3(7H)-one] | 2.9 hrs |  |  |
| O=c1c(Cc2ccccc2)nc2c(Cc3ccccc3)[nH]c(-c3ccccc3)cn1-2 [coelenterazine-hh, bisdeoxycoelenterazine, reference compound] |  | 2.0 hrs |  |
